Tests used:
TH = experiment: Western blot of TH protein levels in SH-SY5Y neuroblastoma cells; format: cell-based, human; details: for TH protein levels / TH expression: 24 h, treatment alone vs control (10 μM 27-OHC, 1 nM estradiol, 10 μM GW3965, 10 μM ECHS)
Description: (§1) Human neuroblastoma SH-SY5Y cells were grown in DMEM/F12 medium containing 10% fetal bovine serum (FBS) and 1% antibiotic/antimycotic mix. Cells were maintained at 37° C. in a saturated humidity atmosphere containing 95% air and 5% CO2.
Treated SH-SY5Y cells were washed with PBS and trypsinized to collect the cells and centrifuged at 5000 g. The pellet was washed again with PBS and homogenized in NE-PER tissue protein extraction reagent (Thermo Scientific, Rockford, Ill.) supplemented with protease and phosphatase inhibitors. Protein concentrations from the cytosolic and nuclear homogenates were determined with BCA protein assay.
Proteins (10 μg) were separated on SDS-PAGE gels, transferred to a polyvinylidene difluoride membrane (BioRad, Hercules, Calif.), and incubated with the following monoclonal antibodies: anti-TH mouse antibody (1:1000; Sigma Aldrich, Saint Louis, Mo.), anti-α-synuclein mouse antibody (1:500; Chemicon, Temecula, Calif.), anti-ERα rabbit antibody (1:500; Abcam, Cambridge, Mass.), anti-ERβ rabbit antibody (1:200; Upstate, Lake Placid, N.Y.), anti-LXRα rabbit antibody (1:500; Abcam, Cambridge, Mass.), anti-LXRβ mouse antibody (1:500; Abcam, Cambridge, Mass.).
β-actin and Lamin A were used as a gel loading control for cytosolic homogenates and nuclear homogenates respectively. The blots were developed with enhanced chemiluminescence (Immmun-star HRP chemiluminescent kit, Bio-Rad, Hercules, Calif.). Bands were visualized on a polyvinylidene difluoride membrane and analyzed by LabWorks 4.5 software on a UVP Bioimaging System (Upland, Calif.). Quantification of results was performed by densitometry and the results analyzed as total integrated densitometric values (arbitrary units).

LXRα/β = experiment: EMSA, binding of LXRα/β to probe for the LXRE in the α-synuclein promoter; format: cell-based, human; details: for binding of LXRα/β to the exogenous DNA sequence containing the LXRE: nuclear extracts of treated SH-SY5Y, treatment alone vs control
LXRα = target: T1, LXRα (Homo sapiens, UniProt Q13133); experiment: ChIP, LXRα binding to the LXRE in the α-synuclein promoter; format: cell-based; details: SH-SY5Y; for LXRα binding to the LXRE on the α-synuclein promoter: treatment alone vs control
T1 construct: endogenous in cells; host or cells: SH-SY5Y human neuroblastoma cells
T1 sequence (Q13133 1-447): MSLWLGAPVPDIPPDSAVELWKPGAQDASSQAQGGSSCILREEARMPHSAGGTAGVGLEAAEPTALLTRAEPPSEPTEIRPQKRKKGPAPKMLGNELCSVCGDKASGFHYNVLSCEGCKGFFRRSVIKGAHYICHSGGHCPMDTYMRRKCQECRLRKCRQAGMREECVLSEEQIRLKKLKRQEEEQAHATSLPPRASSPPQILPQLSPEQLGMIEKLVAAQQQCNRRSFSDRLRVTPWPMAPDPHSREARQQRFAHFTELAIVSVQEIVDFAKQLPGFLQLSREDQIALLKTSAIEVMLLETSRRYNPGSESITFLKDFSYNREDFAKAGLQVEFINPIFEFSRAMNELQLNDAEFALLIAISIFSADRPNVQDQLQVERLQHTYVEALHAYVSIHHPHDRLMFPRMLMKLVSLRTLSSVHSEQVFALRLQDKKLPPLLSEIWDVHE
Description: as §1
ChIP analysis was performed to evaluate the extent of ERα/ERβ and LXRα/LXRβ binding to the DNA elements in the TH promoter and α-synuclein promoter regions respectively using “SimpleChIP™ Enzymatic Chromatic IP kit” from Cell Signaling (Boston, Mass.).
Briefly, cells from each treatment group (3×10^6 cells) were washed with PBS, trypsinized, centrifuged at 5000 g. The pellet containing the cells was further washed with PBS and cross-linked using 37% formaldehyde for 15 min followed by the addition of glycine solution to cease the cross-linking reaction.
The cells were washed with 4× volumes of 1×PBS and centrifuged at ˜220 g for 5 min. The pellet was resuspended and incubated for 10 min in 5 ml of tissue lysis buffer containing DTT and protease and phosphatase inhibitors. The subsequent steps to isolate the cross-linked chromatin were performed according to the manufacturer's protocol.
The cross-linked chromatin from each sample was apportioned into four equal parts. One quarter of the cross-linked chromatin was set aside as “input.” One quarter of the cross-linked chromatin from each sample was incubated with 5 μg of anti-ERα mouse antibody (Cell Signaling, Boston, Mass.) and 5 μg of anti-ERβ rabbit antibody (Upstate, Bedford, Mass.), or 5 μg of anti-LXRα rabbit antibody (Abcam, Cambridge, Mass.) and 5 μg of anti-LXRβ mouse antibody (Abcam, Cambridge, Mass.), while the remaining one quarter of the cross-linked chromatin from each sample was incubated with 5 μg of normal Rabbit IgG to serve as negative control. […]
The crude DNA extract was eluted and then washed several times with wash buffer containing ethanol (provided with the kit) followed by purification with the use of DNA spin columns provided by the manufacturer. […] The DNA fragment size was determined by electrophoresis on a 1.2% agarose FlashGel^R system (Lonza, Rockland, Me.).
The relative abundance of the ERα or ERβ antibody precipitated chromatin containing the ERE in the TH promoter region and LXRα or LXRβ antibody precipitated chromatin containing the LXRE in the α-synuclein promoter region was determined by qPCR using an iQ SYBR Green Supermix kit following the manufacturer's instructions (BioRad, Hercules, Calif.) and sequence specific primers (See Table 1 above). […] The fold enrichment of the ERE in the TH promoter region and LXRE in the α-synuclein promoter region was calculated using the ΔΔCt method (K. J. Livak et al., Methods, 25, 402 (2001)) which normalizes ChIP Ct values of each sample to the % input and background.

ARPE-19 cells = experiment: ROS levels in ARPE-19 cells; format: cell-based; details: ARPE-19, 24 h

Structure (SMILES)	TH protein levels / TH expression (TH)	binding of LXRα/β to the exogenous DNA sequence containing the LXRE (LXRα/β)	LXRα binding to the LXRE on the α-synuclein promoter (LXRα)	reactive oxygen species (ROS) levels (ARPE-19 cells; 10 μM, alone vs control)	effect of estradiol on 27-OHC-induced decrease in TH expression (TH; ECHS added to 27-OHC+estradiol)	TH expression (TH; in combination with estradiol)	27-OHC-induced increase in LXRα/β binding to the LXRE consensus motif (LXRα/β; co-treatment with 27-OHC)	27-OHC-induced increase in ROS levels (ARPE-19 cells; co-treatment with 27-OHC, all at 10 μM)	LXRα binding to the LXRE in the α-synuclein promoter (LXRα; in combination with 27-OHC)
C[C@@H](CO)CCC[C@@H](C)[C@H]1CC[C@H]2[C@@H]3CC=C4C[C@@H](O)CC[C@]4(C)[C@H]3CC[C@]12C [27-OHC, 27-hydroxycholesterol]	significant decrease	increases	no significant augmentation	increases	–	–	–	–	–
CC(C)CCC[C@@H](C)[C@H]1CC[C@H]2[C@@H]3C[C@@H]4O[C@@]45C[C@@H](OS(=O)(=O)O)CC[C@]5(C)[C@H]3CC[C@]12C [ECHS, 5α,6α-epoxycholesterol-3-sulfate]	no effect	decreased	did not significantly attenuate	–	does not alter	no effect	mitigates	reduced	–
Cl.O=C(O)Cc1cccc(OCCCN(Cc2cccc(C(F)(F)F)c2Cl)CC(c2ccccc2)c2ccccc2)c1 [GW3965, 3-[3-[N-(2-Chloro-3-trifluoromethylbenzyl)-(2,2-diphenylethyl)amino]propyloxy]phenylacetic acid hydrochloride]	no effect	–	did not elicit any increase	–	–	–	–	–	did not elicit any increase

— US20150031655A1, “COMBINATION OF LIVER X RECEPTOR MODULATOR AND ESTROGEN RECEPTOR MODULATOR FOR THE TREATMENT OF AGE-RELATED DISEASES” (UNIVERSITY OF NORTH DAKOTA, priority 2011, published 2015)
